Patent US9447134B2 (priority 2012, dated 2016)

Legend:
[1] = Mouse liver microsomal stability
[2] = biological target: T1, CpIMPDH (Cryptosporidium parvum, UniProt Q8T6T2)
T1 sequence (Q8T6T2 1-400): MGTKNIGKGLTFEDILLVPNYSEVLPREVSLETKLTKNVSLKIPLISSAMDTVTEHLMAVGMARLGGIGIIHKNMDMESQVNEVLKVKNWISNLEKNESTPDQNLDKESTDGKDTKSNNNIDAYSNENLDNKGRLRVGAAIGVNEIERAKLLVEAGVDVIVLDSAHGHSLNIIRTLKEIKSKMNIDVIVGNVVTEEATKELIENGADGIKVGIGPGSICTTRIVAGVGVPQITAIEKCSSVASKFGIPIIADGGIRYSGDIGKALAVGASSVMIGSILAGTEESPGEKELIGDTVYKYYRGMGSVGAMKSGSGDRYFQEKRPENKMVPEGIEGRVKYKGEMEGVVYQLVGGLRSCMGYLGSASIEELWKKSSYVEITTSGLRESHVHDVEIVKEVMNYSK

[3] = biological target: F. tularensis IMPDH (Francisella tularensis, UniProt Q5NFC2); test: biochemical
Sequence of F. tularensis IMPDH (Q5NFC2 1-486): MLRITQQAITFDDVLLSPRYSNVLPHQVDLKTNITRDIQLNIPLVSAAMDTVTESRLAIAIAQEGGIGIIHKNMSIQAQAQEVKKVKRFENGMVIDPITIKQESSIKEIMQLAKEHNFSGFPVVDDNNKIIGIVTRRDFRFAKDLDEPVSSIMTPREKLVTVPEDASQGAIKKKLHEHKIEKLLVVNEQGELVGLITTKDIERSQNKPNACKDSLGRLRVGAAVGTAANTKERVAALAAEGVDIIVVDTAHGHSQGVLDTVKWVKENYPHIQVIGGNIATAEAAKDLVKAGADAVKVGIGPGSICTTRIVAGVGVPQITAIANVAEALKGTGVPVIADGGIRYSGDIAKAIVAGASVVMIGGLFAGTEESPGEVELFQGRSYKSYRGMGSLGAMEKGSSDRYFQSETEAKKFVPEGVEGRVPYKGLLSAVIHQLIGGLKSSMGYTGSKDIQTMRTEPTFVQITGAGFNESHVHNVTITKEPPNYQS

[4] = biological target: B. anthracis IMPDH (Bacillus anthracis, UniProt A0A6L8P2U9); test: biochemical
Sequence of B. anthracis IMPDH (A0A6L8P2U9 1-487): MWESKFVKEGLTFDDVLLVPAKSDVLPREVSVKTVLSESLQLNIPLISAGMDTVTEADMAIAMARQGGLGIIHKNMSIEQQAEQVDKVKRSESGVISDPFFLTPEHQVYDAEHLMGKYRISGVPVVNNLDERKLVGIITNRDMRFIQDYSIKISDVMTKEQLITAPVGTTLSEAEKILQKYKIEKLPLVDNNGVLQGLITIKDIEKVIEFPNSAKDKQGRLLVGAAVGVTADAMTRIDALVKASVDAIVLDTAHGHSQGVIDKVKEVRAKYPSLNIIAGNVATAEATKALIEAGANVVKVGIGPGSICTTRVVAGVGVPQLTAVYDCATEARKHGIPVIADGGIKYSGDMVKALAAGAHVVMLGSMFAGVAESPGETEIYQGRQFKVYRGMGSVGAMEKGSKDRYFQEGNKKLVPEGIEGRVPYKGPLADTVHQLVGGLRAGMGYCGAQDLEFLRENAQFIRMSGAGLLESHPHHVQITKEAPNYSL

[5] = biological target: T1, CpIMPDH; test: biochemical
[6] = biological target: T1, CpIMPDH; remark: listed apart in the source
[7] = tested on: Caco-2 cells; settings: cited from earlier work
[8] = mouse, in vivo; cited from earlier work
[9] = tested on: C. parvum
[10] = tested on: Cryptosporidium; settings: mouse models; cited from earlier work

## Cn1nc(CC(=O)Nc2ccc(Cl)c(C(F)(F)F)c2)c2ccccc2c1=O
[1]; presence or absence of NADPH not given
  half-life in mouse liver microsomes: 79 min
[2]
  inhibition mechanism with respect to NAD+: pure noncompetitive inhibitor
[2]; read-out: Kis, with respect to NAD+
  Ki: 0.0034 ± 0.0002 µM

## C=C(C)c1cccc(C(C)(C)NC(=O)Nc2ccccc2)c1 [Compound 5a, 1-Phenyl-3-(2-(3-(prop-1-en-2-yl)phenyl)propan-2-yl)urea]
other
  melting point: 188 to 190 °C

## C=C(C)c1cccc(C(C)(C)NC(=O)Nc2ccc(Cl)c(Cl)c2)c1 [Compound 5h, 1-(3,4-Dichlorophenyl)-3-(2-(3-(prop-1-en-2-yl)phenyl)propan-2-yl)urea]
other
  melting point: 198 to 200 °C

## C=C(C)c1cccc(C(C)(C)NC(=O)Nc2ccc3ccccc3c2)c1 [Compound 5o, 1-(Naphthalen-2-yl)-3-(2-(3-(prop-1-en-2-yl)phenyl)propan-2-yl)urea]
other
  melting point: 201 to 203 °C

## C=C(C)c1cccc(C(C)(C)NC(=O)Nc2ccc3ccccc3n2)c1 [Compound 5t, 1-(2-(3-(prop-1-en-2-yl)phenyl)propan-2-yl)-3-(quinolin-2-yl)urea]
other
  melting point: 126 to 128 °C

## C/C(=N\O)c1cccc(C(C)(C)NC(=O)Nc2ccc(Cl)c(C(F)(F)F)c2)c1 [Compound 7a, (E)-1-(4-Chloro-3-(trifluoromethyl)phenyl)-3-(2-(3-(1-(hydroxyimino)ethyl)phenyl)propan-2-yl)urea]
other
  melting point: 194 to 196 °C

## C/C(=N\O)c1cccc(C(C)(C)NC(=O)Nc2ccc3cccnc3c2)c1 [Compound 7e, (E)-1-(2-(3-(1-(Hydroxyimino)ethyl)phenyl)propan-2-yl)-3-(quinolin-7-yl)urea]
other
  melting point: 164 to 166 °C

## CC1(c2cccc(CNC(=O)Nc3ccc(Cl)cc3)c2)OCCO1 [Compound 22, 1-(4-Chlorophenyl)-3-(3-(2-methyl-1,3-dioxolan-2-yl)benzyl)urea]
[1]; 37° C., absence of NADPH
  half-life in mouse liver microsomes: quite stable
[1]; 37° C., presence of NADPH
  half-life in mouse liver microsomes: 25 min

## Cn1nc(CC(=O)Nc2ccc(Br)c(C(F)(F)F)c2)c2ccccc2c1=O [Compound D45]
[3]
  IC50: 0.27 µM

## Cn1nc(CC(=O)Nc2ccc(Cl)c(F)c2)c2ccccc2c1=O [Compound D52]
[4]
  IC50: 0.9 µM

## Cc1cc2cc(NC(=O)Cc3nn(C)c(=O)c4ccccc34)ccc2o1 [Compound D62, N-(2-methylbenzofuran-5-yl)-2-(3-methyl-4-oxo-3,4-dihydrophthalazin-1-yl)-acetamide]
[5]
  IC50: 0.07 µM

## Cn1nc(CC(=O)Nc2ccc3ocnc3c2)c2ccccc2c1=O [Compound D64, N-(benzo[d]oxazol-5-yl)-2-(3-methyl-4-oxo-3,4-dihydrophthalazin-1-yl)acetamide]
[6]
  CpIMPDH inhibitory activity (SAR, in words): inactive

## Cn1nc(CC(=O)Nc2ccc3[nH]c4ccccc4c3c2)c2ccccc2c1=O [Compound D70, N-(9H-carbazol-3-yl)-2-(3-methyl-4-oxo-3,4-dihydrophthalazin-1-yl)acetam-de]
[6]
  CpIMPDH inhibitory activity (SAR, in words): not active

## CCn1c2ccccc2c2cc(NC(=O)Cc3nn(C)c(=O)c4ccccc34)ccc21 [Compound D71, N-(9-ethyl-9H-carbazol-3-yl)-2-(3-methyl-oxo-3,4-dihydrophthalazin-1-yl) acetamide]
[6]
  CpIMPDH inhibitory activity (SAR, in words): not active

## Cn1nc(CC(=O)Nc2ccc3c(c2)oc2ccccc23)c2ccccc2c1=O [Compound D72, N-(dibenzo[b,d]furan-3-yl)-2-(3-methyl-4-oxo-3,4-dihydrophthalazin-1-yl)acetamide]
[6]
  CpIMPDH inhibitory activity (SAR, in words): not active

## CC(=O)c1cccc(C(C)(C)OC(=O)Nc2ccc(Cl)cc2)c1 [Compound P112]
[3]
  IC50: 0.39 µM
[4]
  IC50: 0.52 µM

## C=C(C)c1cccc(C(C)(C)NC(=O)Nc2ccc3c(c2)OCCO3)c1 [Compound P113]
[3]
  IC50: 0.041 µM
[4]
  IC50: 0.11 µM

## CC(=NOC(C)(C)C)c1cccc(C(C)(C)NC(=O)Nc2ccc(Cl)c(C(F)(F)F)c2)c1 [Compound P114]
[3]
  IC50: 6.9 µM
[4]
  IC50: 0.056 µM

## C/C(=N\OC(C)(C)C)c1cccc(C(C)(C)NC(=O)Nc2ccc(Cl)c([N+](=O)[O-])c2)c1 [Compound P127]
[3]
  IC50: 1.8 µM
[4]
  IC50: 0.094 µM

## C=C(C)c1cccc(C(C)(C)NC(=O)Nc2ccc(Cl)c(C(=O)O)c2)c1 [Compound P138]
[3]
  IC50: 0.12 µM
[4]
  IC50: 0.067 µM

## CC(NC(=O)c1ccc2oc(-c3ccncc3)nc2c1)c1ccccc1 (stereo not drawn) [Compound Q63]
[3]
  IC50: 200 µM
[4]
  IC50: 200 µM

## C[C@H](Oc1cccc(Cl)c1Cl)C(=O)Nc1ccc2nc(-c3cncs3)oc2c1 [Compound Q64, (S)-2-(2,3-dichlorophenoxy)-N-(2-(thiazol-5-yl)benzo[d]oxazol-6-yl) propanamide]
[3]
  IC50: 0.0937 µM
[4]
  IC50: 0.203 µM

## C[C@H](Nc1cccc(Cl)c1Cl)C(=O)Nc1ccc2oc(-c3ccncc3)nc2c1 [Compound Q67, (S)-2-(2,3-dichlorophenylamino)-N-(2-(pyridine-4-yl)benzo[d]oxazol-5-yl)propanamide]
[3]
  IC50: 0.0271 µM
[4]
  IC50: 0.0268 µM

## C[C@H](Sc1cccc(Cl)c1Cl)C(=O)Nc1ccc2oc(-c3ccncc3)nc2c1 [Compound Q75]
[3]
  IC50: 0.192 µM
[4]
  IC50: 0.151 µM

## NC[C@@H]1O[C@H](O[C@H]2[C@@H](O)[C@H](O[C@@H]3[C@@H](O)[C@H](N)C[C@H](N)[C@H]3O[C@H]3O[C@H](CO)[C@@H](O)[C@H](O)[C@H]3N)O[C@@H]2CO)[C@H](N)[C@@H](O)[C@@H]1O [Paromomycin, paromomycin]
[7]
  accumulation in Caco-2 cells (in words): high accumulation
[8]
  systemic distribution / oral bioavailability (literature, in words): poor oral bioavailability
[9]; paromomycin 2000 mg/kg daily oral gavage
  range of reduction of fecal oocysts over experiments: 73-99%
[9]; paromomycin 2000 mg/kg daily oral gavage, average of experiments
  average reduction of fecal oocysts: 89%
[9]; three daily doses (P131 3×83 mg/kg), 10,000 oocysts, counted day 4 post-infection
  reduction of fecal oocysts, multiple daily dose regime: 88-95%

## O=c1[nH]c(=O)n([C@H]2C[C@H](O)[C@@H](CO)O2)cc1C(F)(F)F [Trifluoromethylthymidine]
[10]
  in vivo anticryptosporidial efficacy (literature, in words): significant anticryptosporidial activity

## CC(=O)Oc1ccccc1C(=O)Nc1ncc([N+](=O)[O-])s1 [nitazoxanide]
[8]
  systemic distribution / oral bioavailability (literature, in words): systemically distributed
[10]
  in vivo anticryptosporidial efficacy (literature, in words): little to no efficacy

## N-(6,7,8,9-tetrahydrodibenzo[b,d]furan-5-yl)-2-(3-methyl-4-oxo-3,4-dihydro-phthalazin-1-yl)acetamide [Compound D67]
[6]
  CpIMPDH inhibitory activity (SAR, in words): enhanced potency
